The NIST ThermoML archive (doi:10.1021/acs.jced.8b00081)
± gives the expanded uncertainty stated by the source.

Experiment: wn = mass fraction of the nth substance listed
Settings: 88.35 kPa, Liquid, Pycnometric method

[Cl-].[K+] [potassium chloride] + O
mass density (298.15 K, w1 = 0.2672): 1180 ± 12 kg/m3
mass density (313.15 K, w1 = 0.29): 1192 ± 12 kg/m3
